The record followed here is patent publication US6465499B1 (priority 1996, dated 2002).

Each structure is given as a SMILES string.

One data set concerns Phytophthora infestans. The class given is in vivo. Particulars: tomato young plants, protective spray, rate of application 100 g/ha, evaluated 3 days after inoculation; 0% = as control, 100% = no disease.

For orientation: melting point means the temperature, or range, at which the solid turns liquid. With `Cc1noc(C)c1S(=O)(=O)n1c(=O)sc2c([N+](=O)[O-])cc(C(F)(F)F)cc21` [Example 5], the melting point fell in the range of 129 to 133 °C. The Efficacy in % in the data set with Phytophthora infestans stood at 100%.

Regarding `Cc1noc(C)c1S(=O)(=O)n1c(=O)oc2ccc(Cl)cc21` [Example 4], the melting point lay in the range of 183 to 187 °C. The molecule further had an Efficacy in % in the data set on Phytophthora infestans of 86%.

As to `Cc1noc(C)c1S(=O)(=O)n1c(=O)sc2c(C(F)(F)F)cc([N+](=O)[O-])cc21` [Example 6], the melting point lay within 210 to 213 °C. Moreover, the Efficacy in % with Phytophthora infestans was determined as 93%.

In the case of `Cc1noc(C)c1S(=O)(=O)n1c(=O)oc2c(Cl)cc(Cl)cc21` [Example 3], the melting point lay within 164 to 166 °C. Further, the Efficacy in % in the data set on Phytophthora infestans stood at 93%.

For `Cc1noc(C)c1S(=O)(=O)n1c(=O)sc2c(C(F)(F)F)cc(C(F)(F)F)cc21` [Example 7], the melting point lay in the range of 152 to 156 °C. For the same molecule, the Efficacy in % in the data set with Phytophthora infestans turned out to be 93%.
